Measurements as given in PMC7012964, “Biopharmaceutical Understanding of Excipient Variability on Drug Apparent Solubility Based on Drug Physicochemical Properties. Case Study: Superdisintegrants” (The AAPS Journal, 2020).
Values after ≈ are worked out from the molar mass of the structure shown. Like-named read-outs stand apart in the source and are kept apart here.

Experiments:
[1] = Shake-flask drug solubility in absence of excipient (reference solubility); format: physicochemical
Experimental: (§1) Compendial media (0.1 N HCl pH 1, phosphate buffer pH 6.8) were prepared according to the method described in European Pharmacopoeia ([35]). Fasted State Simulated Gastric Fluid (FaSSGF) and Fasted State Simulated Intestinal Fluid (FaSSIF-V2) were prepared as described by Jantratid et al.([36]).
(§2) Drug solubility studies in the absence and presence of excipient were performed in triplicate using the shake-flask method ([38]). Drug excess amount and 2% w/w or 5% w/w of each excipient were weighed and placed in centrifuge tubes. […] The physical mixtures were vortexed for 3 min. Then 5 mL of each medium was added in the tubes and the samples were placed in a shaking water bath (37°C, 200 strokes per minute (spm)). […] Filter adsorption studies were prior performed in triplicate for each drug. […] Filtered samples were further diluted (if needed) with the corresponding medium and analysed by HPLC (Supplementary Table I). Analytical HPLC procedures for drug quantification in the samples were modifications of already published methods. Drug quantification was made based on calibration curves. Standards were formulated from concentrated stock solution consisting of drug dissolved in MeOH. […] Drug solubility was calculated based on the sample drug concentration measured.

[2] = ref (20), (22), (23), (25), DrugBank, (28), (31), (33); cited from earlier work
[3] = design: method as in earlier work; settings: ref (20), (22), (24), (25), (27), (30), (31), (34); cited from earlier work
[4] = Relative effect (RE) of superdisintegrant on drug apparent solubility (shake-flask, physical mixtures); format: physicochemical
Experimental: as §1, §2

[5] = aqueous buffer, thermodynamic from solid, Phosphate buffer pH 6.8 (compendial), 37°C, mean ± SD, read-out: Reference solubility
[6] = fassgf or other biorelevant, thermodynamic from solid, FaSSGF (biorelevant), 37°C, mean ± SD, read-out: Reference solubility
[7] = simulated gastric fluid, thermodynamic from solid, 0.1 N HCl pH 1 (compendial), 37°C, mean ± SD, read-out: Reference solubility
[8] = thermodynamic from solid, FaSSIF-V2 (biorelevant), 37°C, mean ± SD, read-out: Reference solubility

Structure (SMILES) | solubility at 24 h [1, 5] [µg/mL] | solubility at 24 h [1, 6] [µg/mL] | solubility at 24 h [1, 7] [µg/mL] | solubility at 24 h [1, 8] [µg/mL] | Ionization (type) [2] | Solubility (based on BCS classification) [3] | Relative effect (RE) of excipient on drug solubility ([4]; 5% CCS(H), FaSSIF-V2, 24 h) [%] | Relative effect (RE) of excipient on drug solubility ([4]; CCS(H), low level, FaSSIF-V2, 24 h) [%] | Relative effect (RE) of excipient on drug solubility ([4]; Explotab CLV (SSG), high excipient level, FaSSIF-V2, 24 h) [%] | Relative effect (RE) of excipient on drug solubility ([4]; Glycolys (SSG), both excipient levels, FaSSIF-V2, 24 h) | Relative effect (RE) of excipient on drug solubility ([4]; Glycolys (SSG), high excipient level, 0.1 N HCl pH 1, 24 h) [%] | Relative effect (RE) of excipient on drug solubility ([4]; Glycolys (SSG), low excipient level, 0.1 N HCl pH 1, 24 h) [%] | Relative effect (RE) of excipient on drug solubility ([4]; Glycolys LV (SSG), high excipient level, FaSSIF-V2, 24 h) [%] | solubility at 0.5 h ([1]; compendial media (0.1 N HCl pH 1; phosphate buffer pH 6.8), 37 °C, thermodynamic from solid, compendial media, 0.5 h, read-out: Solubility of pure drug) [µg/mL] | solubility at 24 h ([1]; compendial media (0.1 N HCl pH 1; phosphate buffer pH 6.8), compendial media, read-out: Solubility of pure drug) [µg/mL] | Relative effect (RE) of excipient on drug solubility ([4]; CCS(L), high level, phosphate buffer pH 6.8, 24 h) [%]
CC(C)Cc1ccc(C(C)C(=O)O)cc1 (centres unmarked) [IBU, Ibuprofen] | 5500 (≈ 26700 µM) | 44 (≈ 213 µM) | 43 (≈ 208 µM) | 1500 (≈ 7270 µM) | Weak acid |  |  |  |  |  |  |  |  |  |  | 
OCCN(CCO)c1nc(N2CCCCC2)c2nc(N(CCO)CCO)nc(N3CCCCC3)c2n1 [DPL, Dipyridamole] | 5 (≈ 9.91 µM) | 8600 (≈ 17000 µM) | 13000 (≈ 25800 µM) | 13 (≈ 25.8 µM) | Weak base | Low (30) |  |  |  |  |  |  |  |  |  | 
CC(=O)Nc1ccc(O)cc1 [PRC, Paracetamol] | 15000 (≈ 99200 µM) | 17000 (≈ 112000 µM) | 16000 (≈ 106000 µM) | 17000 (≈ 112000 µM) | Neutral |  |  |  |  |  |  |  |  |  |  | 
CCC(C)n1ncn(-c2ccc(N3CCN(c4ccc(OCC5COC(Cn6cncn6)(c6ccc(Cl)cc6Cl)O5)cc4)CC3)cc2)c1=O (centres unmarked) [ITZ, Itraconazole] | < 0.015 | 1.2 (≈ 1.7 µM) | 11 (≈ 15.6 µM) | 0.05 (≈ 0.0709 µM) | Weak base | Low (34) | 31 | −40 | 25 | approximately 50% | −25 | −23 | 42 |  |  | 
NC(=O)N1c2ccccc2C=Cc2ccccc21 [CBZ, Carbamazepine] | 227 (≈ 961 µM) | 368 (≈ 1560 µM) | 265 (≈ 1120 µM) | 280 (≈ 1190 µM) | Neutral | Low (27) |  |  |  |  |  |  |  | 350 (≈ 1480 µM) | 250 (≈ 1060 µM) | 37
